From patent US5286729A, “Angiotensin II receptor blocking 2,3,6 substituted quinazolinones” (American Cyanamid Company, priority 1993, dated 1994)
Where “and” joins values, the source holds several entries; their conditions need not be identical. Identical values can stand only once.

System: ANGIOTENSIN II (AII) VASOPRESSOR RESPONSE
Experiment: AII Challenge: % inhibition (angiotensin blockage) of angiotensin II vasopressor response in conscious SHR
Type: in vivo, rat (Male Okamoto-Aoki SHR)
Conditions: for Response After AII / Change / Control Before AII: individual rats
Description: By administering a compound of this invention to a rat, and then challenging with angiotensin II, a blockage of the vasopressor response is realized. The results of this test on representative compounds of this invention are shown in Table V. Conscious Male Okamoto-Aoki SHR, 16-20 weeks old, weighing approximately 330 g are purchased from Charles River Labs (Wilmington, MA). Conscious rats are restrained in a supine position with elastic tape. The area at the base of the tail is locally anesthetized by subcutaneous infiltration with 2% procaine. The central caudal artery and vein are isolated, and a cannula made of polyethylene (PE) 10-20 tubing (fused together by heat) is passed into the lower abdominal aorta and vena cava, respectively. The cannula is secured, heparinized (1,000 I.U./ml), sealed and the wound is closed. The animals are placed in plastic restraining cages in an upright position. The cannula is attached to a Statham P23Db pressure transducer, and pulsatile blood pressure is recorded to 10-15 minutes with a Gould Brush recorder. (Chan et al., (Drug Development Res., 18:75-94, 1989). Angiotensin II (human sequence, Sigma Chem. Co., St. Louis, MO) of 0.05 and 0.1 ug/kg i.v. is injected into all rats (predosing repsonse). Then a test compound, vehicle or a known angiotensin II antagonist is administered i.v., i.p. or orally to each set of rats. The two doses of angiotensin II are given to each rat again at 30, 60, 90, 120, 180, 240 and 300 minutes post dosing the compound or vehicle. The vasopressor response of angiotensin II is measured for the increase in systolic blood pressure in mmHg. The percentage of antagonism or blockade of the vasopressor response of angiotensin II by a compound is calculated using the vasopressor response (increase in systolic blood pressure) of angiotensin II of each rat predosing the compound as 100%. A compound is considered active if at 30 mg/kg i.v. it antagonized at least 50% of the response.

[1] = 5 mg/kg IV, AII 0.05 mcg/kg IV, 30 min post dose
[2] = 5 mg/kg IV, AII 0.05 mcg/kg IV, 30 min post dose, monohydrochloride
[3] = 5 mg/kg IV, AII 0.05 mcg/kg IV, 60 min post dose
[4] = 5 mg/kg IV, AII 0.05 mcg/kg IV, 60 min post dose, monohydrochloride
[5] = 5 mg/kg IV, AII 0.05 mcg/kg IV, 90 min post dose
[6] = 5 mg/kg IV, AII 0.05 mcg/kg IV, 90 min post dose, monohydrochloride
[7] = 5 mg/kg IV, AII 0.05 mcg/kg IV, 120 min post dose
[8] = 5 mg/kg IV, AII 0.05 mcg/kg IV, 120 min post dose, monohydrochloride
[9] = 5 mg/kg IV, AII 0.05 mcg/kg IV, 180 min post dose
[10] = 5 mg/kg IV, AII 0.05 mcg/kg IV, 180 min post dose, monohydrochloride
[11] = 5 mg/kg IV, AII 0.1 mcg/kg IV, 30 min post dose
[12] = 5 mg/kg IV, AII 0.1 mcg/kg IV, 30 min post dose, monohydrochloride
[13] = 5 mg/kg IV, AII 0.1 mcg/kg IV, 60 min post dose
[14] = 5 mg/kg IV, AII 0.1 mcg/kg IV, 60 min post dose, monohydrochloride
[15] = 5 mg/kg IV, AII 0.1 mcg/kg IV, 90 min post dose
[16] = 5 mg/kg IV, AII 0.1 mcg/kg IV, 90 min post dose, monohydrochloride
[17] = 5 mg/kg IV, AII 0.1 mcg/kg IV, 120 min post dose
[18] = 5 mg/kg IV, AII 0.1 mcg/kg IV, 120 min post dose, monohydrochloride
[19] = 5 mg/kg IV, AII 0.1 mcg/kg IV, 180 min post dose
[20] = 5 mg/kg IV, AII 0.1 mcg/kg IV, 180 min post dose, monohydrochloride
[21] = 10 mg/kg P.O., AII 0.05 mcg/kg IV, 30 min post dose
[22] = 10 mg/kg P.O., AII 0.05 mcg/kg IV, 30 min post dose, monohydrochloride
[23] = 10 mg/kg P.O., AII 0.05 mcg/kg IV, 60 min post dose
[24] = 10 mg/kg P.O., AII 0.05 mcg/kg IV, 60 min post dose, monohydrochloride
[25] = 10 mg/kg P.O., AII 0.05 mcg/kg IV, 90 min post dose
[26] = 10 mg/kg P.O., AII 0.05 mcg/kg IV, 90 min post dose, monohydrochloride
[27] = 10 mg/kg P.O., AII 0.05 mcg/kg IV, 120 min post dose
[28] = 10 mg/kg P.O., AII 0.05 mcg/kg IV, 120 min post dose, monohydrochloride
[29] = 10 mg/kg P.O., AII 0.05 mcg/kg IV, 180 min post dose
[30] = 10 mg/kg P.O., AII 0.05 mcg/kg IV, 180 min post dose, monohydrochloride
[31] = 10 mg/kg P.O., AII 0.1 mcg/kg IV, 30 min post dose
[32] = 10 mg/kg P.O., AII 0.1 mcg/kg IV, 30 min post dose, monohydrochloride
[33] = 10 mg/kg P.O., AII 0.1 mcg/kg IV, 60 min post dose
[34] = 10 mg/kg P.O., AII 0.1 mcg/kg IV, 90 min post dose
[35] = 10 mg/kg P.O., AII 0.1 mcg/kg IV, 120 min post dose
[36] = 10 mg/kg P.O., AII 0.1 mcg/kg IV, 120 min post dose, monohydrochloride
[37] = 10 mg/kg P.O., AII 0.1 mcg/kg IV, 180 min post dose
[38] = 10 mg/kg P.O., AII 0.1 mcg/kg IV, 180 min post dose, monohydrochloride

CCCCc1nc2ccc(COc3ccccn3)cc2c(=O)n1Cc1ccc(-c2ccccc2-c2nnn[nH]2)cc1.Cl [Example 12, 2-Butyl-6-[(2-pyridinyloxy)methyl]-3-[[2'-(1H-tetrazol-5-yl)[1,1'-biphenyl]-4-yl]methyl]-4(3H)-quinazolinone monohydrochloride]
% Inhibition [1]: 62% | Average Change [1]: 12.5 mmHg | Response After AII [1]: 195 mmHg | Change [2]: 10 mmHg and 15 mmHg | Control Before AII [2]: 185 mmHg and 180 mmHg | % Inhibition [3]: 92% | Average Change [3]: 2.5 mmHg | Control Before AII [3]: 175 mmHg | Response After AII [3]: 180 mmHg | Change [4]: 0 mmHg and 5 mmHg | Response After AII [4]: 175 mmHg | % Inhibition [5]: 69% | Average Change [5]: 10 mmHg | Change [5]: 10 mmHg | Response After AII [5]: 170 mmHg | Control Before AII [6]: 160 mmHg and 165 mmHg | Response After AII [6]: 175 mmHg | % Inhibition [7]: 77% | Average Change [7]: 7.5 mmHg | Control Before AII [7]: 165 mmHg | Response After AII [7]: 170 mmHg | Change [8]: 10 mmHg and 5 mmHg | Response After AII [8]: 175 mmHg | % Inhibition [9]: 66% | Average Change [9]: 11 mmHg | Change [10]: 7 mmHg and 15 mmHg | Control Before AII [10]: 165 mmHg and 155 mmHg | Response After AII [10]: 172 mmHg and 170 mmHg | % Inhibition [11]: 65% | Average Change [11]: 15 mmHg | Control Before AII [11]: 185 mmHg | Response After AII [11]: 195 mmHg | Change [12]: 10 mmHg and 20 mmHg | Control Before AII [12]: 175 mmHg | % Inhibition [13]: 71% | Average Change [13]: 12.5 mmHg | Response After AII [13]: 185 mmHg | Change [14]: 15 mmHg and 10 mmHg | Control Before AII [14]: 170 mmHg and 175 mmHg | % Inhibition [15]: 76% | Average Change [15]: 10 mmHg | Change [15]: 10 mmHg | Control Before AII [16]: 160 mmHg and 170 mmHg | Response After AII [16]: 170 mmHg and 180 mmHg | % Inhibition [17]: 65% | Average Change [17]: 15 mmHg | Control Before AII [17]: 165 mmHg | Change [18]: 20 mmHg and 10 mmHg | Response After AII [18]: 185 mmHg and 175 mmHg | % Inhibition [19]: 51% | Average Change [19]: 21 mmHg | Control Before AII [19]: 160 mmHg | Change [20]: 20 mmHg and 22 mmHg | Response After AII [20]: 180 mmHg and 182 mmHg | % Inhibition [21]: 56% | Average Change [21]: 17.5 mmHg | Control Before AII [21]: 185 mmHg | Response After AII [21]: 210 mmHg | Change [22]: 25 mmHg and 10 mmHg | Control Before AII [22]: 200 mmHg | % Inhibition [23]: 44% | Average Change [23]: 22.5 mmHg | Control Before AII [23]: 185 mmHg | Response After AII [23]: 220 mmHg | Change [24]: 25 mmHg and 20 mmHg | Control Before AII [24]: 195 mmHg | Response After AII [24]: 205 mmHg | % Inhibition [25]: 59% | Average Change [25]: 16.5 mmHg | Control Before AII [25]: 195 mmHg | Change [26]: 30 mmHg and 3 mmHg | Control Before AII [26]: 190 mmHg | Response After AII [26]: 220 mmHg and 198 mmHg | % Inhibition [27]: 69% | Average Change [27]: 12.5 mmHg | Control Before AII [27]: 210 mmHg | Response After AII [27]: 230 mmHg | Change [28]: 20 mmHg and 5 mmHg | Response After AII [28]: 215 mmHg | % Inhibition [29]: 50% | Average Change [29]: 20 mmHg | Control Before AII [29]: 185 mmHg | Change [30]: 25 mmHg and 15 mmHg | Response After AII [30]: 210 mmHg and 200 mmHg | % Inhibition [31]: 34% | Average Change [31]: 27.5 mmHg | Response After AII [31]: 220 mmHg | Change [32]: 35 mmHg and 20 mmHg | Control Before AII [32]: 185 mmHg and 200 mmHg | % Inhibition [33]: 16% | Average Change [33]: 35 mmHg | Change [33]: 35 mmHg | Control Before AII [33]: 185 mmHg | Response After AII [33]: 220 mmHg | % Inhibition [34]: 28% | Average Change [34]: 30 mmHg | Change [34]: 30 mmHg | Control Before AII [34]: 190 mmHg | Response After AII [34]: 220 mmHg | % Inhibition [35]: 52% | Average Change [35]: 20 mmHg | Control Before AII [35]: 205 mmHg | Response After AII [35]: 235 mmHg | Change [36]: 30 mmHg and 10 mmHg | Response After AII [36]: 215 mmHg | % Inhibition [37]: 40% | Average Change [37]: 25 mmHg | Response After AII [37]: 210 mmHg | Change [38]: 35 mmHg and 15 mmHg | Control Before AII [38]: 190 mmHg and 195 mmHg | Response After AII [38]: 225 mmHg
